In US20250059141A1, “TLR MODULATOR AND USE THEREOF” (DUALITY BIOLOGICS (SUZHOU) CO., LTD., priority 2021, published 2025) one finds EC50 data, which are given here for nine compounds.

pEC50: −log10 of the molar value.

What is called pEC50 is −log10 of the EC50, conventionally taken in molar units.

The experiment concerns the target T1, hTLR8 (human Toll-like receptor 8) (Homo sapiens, UniProt Q9NR97).
T1 construct: host or cells: HEK-Blue hTLR8 (HEK293-derived reporter cells)
T1 sequence (Q9NR97 27-1041): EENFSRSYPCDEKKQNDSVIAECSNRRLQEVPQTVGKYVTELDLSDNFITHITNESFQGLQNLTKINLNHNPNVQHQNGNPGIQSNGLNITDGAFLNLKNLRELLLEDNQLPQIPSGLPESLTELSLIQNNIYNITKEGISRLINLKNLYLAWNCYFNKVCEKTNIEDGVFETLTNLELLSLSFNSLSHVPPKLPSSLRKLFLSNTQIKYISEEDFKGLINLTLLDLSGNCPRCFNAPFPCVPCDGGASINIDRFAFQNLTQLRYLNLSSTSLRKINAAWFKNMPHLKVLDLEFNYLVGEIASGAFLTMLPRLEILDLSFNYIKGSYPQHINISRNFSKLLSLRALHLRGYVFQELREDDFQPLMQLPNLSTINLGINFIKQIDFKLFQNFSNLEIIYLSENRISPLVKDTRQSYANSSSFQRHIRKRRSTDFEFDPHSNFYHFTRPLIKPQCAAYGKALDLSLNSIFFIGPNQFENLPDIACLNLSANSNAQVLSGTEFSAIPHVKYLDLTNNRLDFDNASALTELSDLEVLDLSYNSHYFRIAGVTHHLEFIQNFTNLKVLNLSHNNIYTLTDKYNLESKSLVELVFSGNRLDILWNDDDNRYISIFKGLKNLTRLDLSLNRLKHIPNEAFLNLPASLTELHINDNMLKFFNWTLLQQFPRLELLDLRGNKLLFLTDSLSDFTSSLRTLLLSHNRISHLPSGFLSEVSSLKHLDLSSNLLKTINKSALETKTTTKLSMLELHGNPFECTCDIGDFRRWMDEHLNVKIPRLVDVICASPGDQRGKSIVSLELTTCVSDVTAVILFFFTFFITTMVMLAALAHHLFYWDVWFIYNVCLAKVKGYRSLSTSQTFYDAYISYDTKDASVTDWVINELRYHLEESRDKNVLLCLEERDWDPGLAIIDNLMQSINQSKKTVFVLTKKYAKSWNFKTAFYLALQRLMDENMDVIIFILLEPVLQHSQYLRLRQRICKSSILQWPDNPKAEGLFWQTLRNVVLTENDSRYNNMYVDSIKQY
In words: HEK-Blue hTLR8 reporter assay (QUANTI-Blue, OD650). It counts as cell-based. To be noted: HEK-Blue hTLR8 cells, 24 h; class symbols; read-out: Reporter assay TLR8 EC50. The protocol: In this example, the agonistic activity of the compounds of the present application on hTLR7 (human Toll-like receptor 7) and hTLR8 (human Toll-like receptor 8) was assessed; the induction activity of the compounds on human PBMCs for TNF-α and IFN-α production was assessed in human PBMCs (human peripheral blood mononuclear cells).
All compounds were formulated in DMSO into 30 mM stock solutions and preserved at 4° C. The reference compound ([…], Cat. No. tlrl-r848-5) was purchased from InvivoGen and formulated into a 5 mg/mL stock solution in DMSO and preserved in a freezer at −20° C. HEK-Blue hTLR7 and HEK-Blue hTLR8 cell lines were purchased from InvivoGen, and human PBMCs were purchased from Shanghai Saily Biotechnology Co., Ltd. (Cat. No. XFB—HP100B).
The major instruments used in this study were multifunctional microplate reader Flexstation III (Molecular Device), Envision (Perkin Elmer), M2e (Molecular Device), and Echo555 (Labcyte). 2.1 Agonistic activity of compounds on hTLR7 (human Toll-like receptor 7) and hTLR8 (human Toll-like receptor 8)
Compound dilution: The compounds of the present application are diluted in DMSO, for example, to about 15 mM. The reference compound was added to the plates in sequence after dilution. The compounds were serially 3-fold diluted to 10 concentrations and added to 96-well plates in duplicate.
For the negative control wells, DMSO was added at 0.2 μL/well, and the reference compound was added to the positive control wells. The final concentration of DMSO was 0.2%.
Cell plating: When an 80% confluence of HEK Blue hTLR7&8 cells in the culture flask was observed under a microscope, the culture medium was discarded, 10 mL of detection medium was added, and the cells were separated by pipetting. The cells were counted on a cytometer and diluted to 500,000 cells/mL. The cells were plated at 100 μL/50,000 cells/well in the 96-well plates containing the compounds. The compounds and cells were co-incubated at 37° C. in a 5% CO2 incubator for 24 hours.
Compound activity detection: 20 μL of cell supernatant was taken from each well and added to a plate containing QUANTI-Blue™ reagent at 180 μL/well. The plate was incubated at 37° C. for 1 hour, and the absorbance at 650 nm (OD650) was measured on the multifunctional microplate reader Flexstation III.
Compound activity data analysis: The OD650 values were analyzed by GraphPad Prism software and fitted to give dose-response curves of the compounds. The EC50 values of compounds were calculated.
(In a reporter assay the amount or activity of a reporter protein is the signal.)
As for `CCCN(OCc1ccc(N)cc1)C(=O)C1=Cc2ccc(C(=O)Nc3cccc(CN)c3)cc2N=C(N)C1` [Compound 86], the pEC50 is not below 8.00.

`CCCN(OCc1ccc(N)cc1)C(=O)C1=Cc2ccc(C(=O)Nc3ncco3)cc2N=C(N)C1` [Compound 87]: the pEC50 was not below 8.00. For the compound `CCCN(OCc1ccc(N)cc1)C(=O)C1=Cc2ccc(C(=O)Nc3ccn(C)n3)cc2N=C(N)C1` [Compound 88], the pEC50 was not below 8.00. On to `CCCN(OCc1ccc(N)cc1)C(=O)C1=Cc2ccc(C(=O)Nc3ccc4cn[nH]c4c3)cc2N=C(N)C1` [Compound 89], for which the pEC50 was 7.00 to 8.00. The same measure for `CCCN(OCc1ccc(N)cc1)C(=O)C1=Cc2ccc(C(=O)Nc3ccc4c(c3)CNC4)cc2N=C(N)C1` [Compound 90]: not below 8.00; for `CCCN(OCc1ccc(N)cc1)C(=O)C1=Cc2ccc(C(=O)N3CCN(C)CC3)cc2N=C(N)C1` [Compound 93]: not below 8.00; for `CCCN(OCc1ccc(N)cc1)C(=O)C1=Cc2ccc(C(=O)N3CC(Oc4ccccc4)C3)cc2N=C(N)C1` [Compound 94]: not below 8.00. Regarding `CCCN(OCc1ccc(N)cc1)C(=O)C1=Cc2ccc(C(=O)N3CC4(COC4)C3)cc2N=C(N)C1` [Compound 95], the pEC50 is not below 8.00. For `CCCN(OCc1ccc(N)cc1)C(=O)C1=Cc2ccc(C(=O)N3CCN(c4ccccc4)CC3)cc2N=C(N)C1` [Compound 97] the value was not below 8.00.
